In PubChem BioAssay (NCI):
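Interpolation was linear, between the two tested concentrations surrounding the appropriate level; five concentrations were tested over 48 hours in 96-well plates. Here, GI50 denotes the concentration required for 50% inhibition of growth. TGI: concentration producing complete growth inhibition.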

Legend:
Assay in all cases: growth of human tumour cells (NCI), 48 h; in the data active = GI50 below about 0.43 µM; inactive = the rest
[1] = test system: OVCAR-3 ovarian
[2] = test system: SW-620 colon
[3] = test system: A549 NSCLC
[4] = test system: M19-MEL melanoma
[5] = test system: HOP-18 NSCLC
[6] = test system: COLO 205 colon
[7] = test system: KM20L2 colon
[8] = test system: HOP-62 NSCLC
[9] = test system: SF-295 CNS
[10] = test system: K-562 leukemia
[11] = test system: HCT-116 colon
[12] = test system: MOLT-4 leukemia
[13] = test system: U251 CNS
[14] = test system: MALME-3M melanoma
[15] = test system: TK-10 renal
[16] = test system: OVCAR-4 ovarian
[17] = test system: NCI-H23 lung
[18] = test system: HCC-2998 colon
[19] = test system: HOP-92 NSCLC
[20] = test system: IGROV1 ovarian
[21] = test system: SK-MEL-5 melanoma
[22] = test system: A498 renal
[23] = test system: LXFL 529 NSCLC
[24] = test system: DLD-1 colon
[25] = test system: NCI-H226 lung
[26] = test system: LOX IMVI melanoma
[27] = test system: SK-OV-3 ovarian
[28] = test system: DMS 273 small cell lung
[29] = test system: CCRF-CEM leukemia
[30] = test system: M14 melanoma
[31] = test system: UO-31 renal
[32] = test system: OVCAR-8 ovarian
[33] = test system: NCI-H460 lung
[34] = test system: DMS 114 small cell lung
[35] = test system: HCT-15 colon
[36] = test system: CAKI-1 renal
[37] = test system: SR leukemia
[38] = test system: UACC-62 melanoma
[39] = test system: ACHN renal
[40] = test system: RXF-631 renal
[41] = test system: OVCAR-5 ovarian
[42] = test system: SK-MEL-28 melanoma
[43] = test system: SNB-19 CNS
[44] = test system: SN12C renal
[45] = test system: HL-60(TB) leukemia
[46] = test system: 786-0 renal
[47] = test system: RPMI-8226 leukemia
[48] = test system: SF-268 CNS
[49] = test system: SF-539 CNS
[50] = test system: EKVX NSCLC
[51] = test system: UACC-257 melanoma
[52] = test system: SNB-75 CNS
[53] = test system: SK-MEL-2 melanoma
[54] = test system: HT29 colon
[55] = test system: RXF 393 renal
[56] = test system: SNB-78 CNS
[57] = test system: KM12 colon
[58] = test system: NCI-H522 lung
[59] = test system: XF 498 CNS

CCCCCCCC(=O)OC(COC(=O)Cc1ccccc1)COC(=O)C(C)(C)C (stereo not drawn)
> 100 µM: TGI [1] | TGI [2] | TGI [3] | TGI [4] | TGI [5] | TGI [6] | TGI [7] | TGI [8] | TGI [9] | TGI [10] | TGI [11] | TGI [12] | TGI [13] | TGI [14] | TGI [15] | TGI [16] | TGI [17] | TGI [18] | TGI [19] | TGI [20] | TGI [21] | TGI [22] | TGI [23] | TGI [24] | TGI [25] | TGI [26] | TGI [27] | TGI [28] | TGI [29] | TGI [30] | TGI [31] | TGI [32] | TGI [33] | TGI [34] | TGI [35] | TGI [36] | TGI [37] | TGI [38] | TGI [39] | TGI [40] | TGI [41] | TGI [42] | TGI [43] | TGI [44] | TGI [45] | TGI [46] | TGI [47] | TGI [48]

CCCCCCCCCCCCCCCCCC(=O)NCC(COP(=O)([O-])OCC[N+](C)(C)C)OCC (stereo not drawn)
38.7 µM: TGI [50]
33.7 µM: TGI [27]
44.6 µM: TGI [26]
0.71 µM: TGI [7]
33 µM: TGI [51]
0.326 µM: TGI [43]
31.6 µM: TGI [49]
32.9 µM: TGI [34]
34.6 µM: TGI [17]
32.5 µM: TGI [42]
32.2 µM: TGI [21]
36.1 µM: TGI [14]
37.5 µM: TGI [40]
33.8 µM: TGI [31]
33.4 µM: TGI [3]
0.284 µM: TGI [28]

O=c1oc2c(O)c(O)cc3c(=O)oc4c(O)c(O)cc1c4c23
> 100 µM: TGI [2] | TGI [3] | TGI [4] | TGI [53] | TGI [6] | TGI [7] | TGI [9] | TGI [10] | TGI [11] | TGI [12] | TGI [54] | TGI [15] | TGI [16] | TGI [55] | TGI [56] | TGI [17] | TGI [18] | TGI [20] | TGI [21] | TGI [22] | TGI [23] | TGI [24] | TGI [26] | TGI [27] | TGI [57] | TGI [28] | TGI [29] | TGI [50] | TGI [30] | TGI [31] | TGI [33] | TGI [34] | TGI [35] | TGI [37] | TGI [38] | TGI [39] | TGI [51] | TGI [41] | TGI [42] | TGI [44] | TGI [45] | TGI [59] | TGI [47] | TGI [48]
99 µM: TGI [19]
71.6 µM: TGI [46]
90.3 µM: TGI [52]
29.5 µM: TGI [36]
inactive: GI50 [2] > 100 µM | GI50 [4] > 100 µM | GI50 [6] > 100 µM | GI50 [9] > 100 µM | GI50 [10] > 100 µM | GI50 [12] > 100 µM | GI50 [54] > 100 µM | GI50 [55] > 100 µM | GI50 [56] > 100 µM | GI50 [18] > 100 µM | GI50 [21] > 100 µM | GI50 [24] > 100 µM | GI50 [57] > 100 µM | GI50 [28] > 100 µM | GI50 [29] > 100 µM | GI50 [51] > 100 µM | GI50 [41] > 100 µM | GI50 [42] > 100 µM | GI50 [45] > 100 µM | GI50 [47] > 100 µM
57.3 µM: TGI [43]
88.7 µM: TGI [32]
57.4 µM: TGI [25]
79 µM: TGI [13]
43.1 µM: TGI [58]
82.2 µM: TGI [1]

CC(C)OP(=O)(OC(C)C)/C(=N/Nc1ccc([N+](=O)[O-])cc1)NNC(=O)c1ccccc1
70.8 µM: TGI [26]
91.3 µM: TGI [42]
99.2 µM: TGI [16]
32 µM: TGI [21]
48.1 µM: TGI [59]
61.3 µM: TGI [19]
68.9 µM: TGI [45]
43.1 µM: TGI [34]
> 100 µM: TGI [1] | TGI [2] | TGI [49] | TGI [52] | TGI [3] | TGI [53] | TGI [6] | TGI [7] | TGI [8] | TGI [10] | TGI [11] | TGI [14] | TGI [15] | TGI [24] | TGI [25] | TGI [57] | TGI [50] | TGI [30] | TGI [31] | TGI [32] | TGI [33] | TGI [58] | TGI [35] | TGI [36] | TGI [39] | TGI [51] | TGI [41] | TGI [43] | TGI [44] | TGI [46] | TGI [47] | TGI [48]
36.5 µM: TGI [38]
79.3 µM: TGI [17]
70.4 µM: TGI [18]
76.7 µM: TGI [13]
42.2 µM: TGI [12]
50.9 µM: TGI [37]
55.4 µM: TGI [29]
80.4 µM: TGI [56]
41.2 µM: TGI [4]
68.5 µM: TGI [23]
